Test results published in patent US20150252048A1, “SUBSTITUTED N-(3-PYRIMIDIN-4-YL)PHENYL)ACRYLAMIDE ANALOGS AS TYROSINE RECEPTOR KINASE BTK INHIBITORS” (UNIVERSITY OF UTAH RESEARCH FOUNDATION, priority 2012, published 2015).
Where two headings read alike, the source gives them in different places.

Key:
[1] = Caco-2 bidirectional permeability assay; format: in vitro ADME; conditions: human
Experimental: (§1) Cell membrane permeability is an important drug characteristic. Typically, a drug candidate is test in a Caco-2 cell transmembrane permeability assay. Compound 3 was tested in a bidirectional permeability assay, and the results are shown in Table V. The data are consistent with the representative compound having good cellular membrane permeability, and the efflux ratio is consistent with active efflux of the drug from cell. The study was conducted using standard techniques known in the art.

[2] = tested on: Caco-2 cell; test: Caco-2 bidirectional permeability assay; format: in vitro ADME; conditions: Caco-2
Experimental: as §1

[3] = Plasma stability assay; format: in vitro ADME; set-up: half-life: dose or concentration left out as unconfirmed
Experimental: The representative compound, compound 3, was also assessed in a plasma stability assay. Briefly, the compound was present at a concentration […] in plasma from three mammalian species (human, rat, and mouse). The concentration of intact drug (i.e. unmodified drug) at the indicated time points was determined using a LC-MS/MS assay. The data are consistent with good drug stability under the conditions tested.

[4] = target: BTK (Homo sapiens, UniProt Q06187); test: Specific kinase IC50 assay; format: biochemical; conditions: 1 μM ATP, 10-dose, duplicate
Experimental: In addition, the compound IC50 was determined in six specific kinase assays. The kinases that the compound was assayed against were as follows: BMX/ETK, BTK, EGFR (T790M), ERBB4/HER4, JAK3, and TEC. The assays were carried out in the presence of 1 μM ATP and were conducted in a 10-dose format in duplicate with three-fold serial dilutions starting at 10 μM. The calculated IC50s are shown in Table IX, and representative dose response curves from these assays are shown in FIG. 5 (Panels A: BMX/ETK kinase assay; Panel B: BTK kinase assay; Panel C: EGFR (T790M) kinase assay; Panel D: ERBB4/HER4 kinase assay; Panel E: JAK3 kinase assay; and Panel F: TEC kinase assay). The data in Figure show the individual assay duplicate assay results a line fit to the data; 100% activity is the activity in the […] of test compound. […].

[5] = Pharmacokinetics in rat; format: in vivo, male Sprague Dawley rats
Experimental: The pharmacokinetic behavior of a representative disclosed compound, compound 3 (N-(3-(6-((3-morpholinophenyl)amino)-1H-pyrazolo[3,4-d]pyrimidin-4-yl)phenyl)acrylamide), which corresponds to compound 3 in Table I, was also evaluated in rat. A study was conducted using three male Sprague Dawley rats in each group as shown below:
The solution formulations were prepared as follows: (A) intravenous route (“i.v.”): a weighed quantity of 3 (10.45 mg) was transferred into a 10 mL clean glass vial. To this 0.231 mL of ethanol (4.5%) was added, vortexed and sonicated. To this 1.028 mL of propylene glycol (20%) was added, vortexed and sonicated. 1.543 mL of PEG400 (30%) was added, vortexed and sonicated. Finally 2.340 mL of water (45.5%) was added gradually, vortexed and sonicated to make a solution of 2 mg/mL concentration. The final solution was filtered using syringe filter (0.22 μm).; and (B) a weighed quantity of SC-1344 (27.43 mg) was transferred into a 10 mL clean glass vial. To this 0.304 mL of ethanol (4.5%) was added, vortexed and sonicated. To this 1.350 mL of propylene glycol (20%) was added, vortexed and sonicated. 2.024 mL of PEG400 (30%) was added, vortexed and sonicated. Finally 3.070 mL of water (45.5%) was added gradually, vortexed and sonicated to make a solution of 4 mg/mL concentration. The final solution was filtered using syringe filter (0.22 μm).
Bioanalysis was performed using fit-for-purpose LC-MS/MS method for the quantification of 3 in rat plasma samples. The calibration curve (CC) for the method consisted of nine non-zero calibration standards along with a double blank and zero standard samples. Study samples were analyzed along with two sets of quality control samples (6 QC samples; low, medium and high QC samples in triplicate). Briefly, the LC-MS/MS method used the following parameters: a) gradient mobile phase (Pump A: 0.1% Formic acid in water; Pump B: 100% methanol); b) XBridge C8, 50×4.6 mm, 3.5μ (Waters) column; c) 10 μL injection volume; d) 1.00 mL/min flow rate; e) 3.50 min run time; f) 10° C. sample cooler temperature; and g) 40° C. column oven temperature. The sample calibration curve was 1.02-1023 ng/mL, with an internal standard (telmisartan) at 0.2 μg/mL. Briefly, biological samples were prepared as follows: 50 μL of sample was mixed with 150 μL of internal standard, then mixture was vortexed for 5 min at 800 rpm, followed by centrifugation at 4000 rpm for 5 min; 150 μL of the sample supernatant was transferred into a separate tube and diluted with 75 μL of methanol: water (1:1), followed by injection into LC/MS/MS.
Plasma pharmacokinetic parameters were calculated using the non-compartmental analysis tool of Phoenix software (Version 6.3) and were determined from individual animals in each group. The area under the plasma concentration-time curve (AUC0-t and AUCinf), elimination half-life (T1/2), clearance (CL), volume of distribution (Vss) and Mean residence time (MRT) were calculated from intravenous group. The peak plasma concentration (Cmax), time to achieve peak plasma concentration (Tmax), AUC0-t and AUCinf, and absolute oral bioavailability (F) were calculated from the oral group.
The mean plasma concentration-time profiles are shown in FIGS. 10 and 11, i.e. the mean concentration values of the individual values obtained from each rat in the study group at the indicated time points.

Sequence of BTK (Q06187 whole entry): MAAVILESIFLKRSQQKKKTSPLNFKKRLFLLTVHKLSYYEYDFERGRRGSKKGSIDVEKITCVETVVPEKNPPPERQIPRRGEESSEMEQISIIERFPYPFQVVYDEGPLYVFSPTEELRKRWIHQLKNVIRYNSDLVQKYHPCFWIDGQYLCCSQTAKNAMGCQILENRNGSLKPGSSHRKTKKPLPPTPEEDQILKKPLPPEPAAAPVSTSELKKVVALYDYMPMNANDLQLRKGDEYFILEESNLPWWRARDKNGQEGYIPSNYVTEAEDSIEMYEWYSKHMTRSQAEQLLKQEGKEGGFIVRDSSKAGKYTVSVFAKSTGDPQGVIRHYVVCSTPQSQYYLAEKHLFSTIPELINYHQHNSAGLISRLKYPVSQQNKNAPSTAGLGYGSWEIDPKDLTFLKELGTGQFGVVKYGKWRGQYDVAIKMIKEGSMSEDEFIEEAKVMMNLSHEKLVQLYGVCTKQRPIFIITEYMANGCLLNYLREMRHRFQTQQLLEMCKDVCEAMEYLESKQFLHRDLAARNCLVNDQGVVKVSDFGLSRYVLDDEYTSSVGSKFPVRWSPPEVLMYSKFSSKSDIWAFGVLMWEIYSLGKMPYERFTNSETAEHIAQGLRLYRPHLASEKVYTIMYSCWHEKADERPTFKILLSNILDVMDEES

efflux ratio ([1]; Caco-2): 6
recovery ([1]; Caco-2, Caco-2, A-B, read-out: % Recovery A-B): 41%
recovery ([1]; Caco-2, Caco-2, B-A, read-out: % Recovery B-A): 84%
Papp A→B ([1]; Caco-2, A-B): 5.81 ×10⁻⁶ cm/s
Papp B→A ([1]; Caco-2, B-A): 34.9 ×10⁻⁶ cm/s
Permeability Classification [2]: High
Significant Efflux [2]: Yes
half-life ([3]; human plasma): > 2 h
Compound Remaining ([3]; human plasma, 0 min): 100 % of initial amount
Compound Remaining ([3]; human plasma, 15 min): 90.1 % of initial amount
Compound Remaining ([3]; human plasma, 30 min): 99.6 % of initial amount
Compound Remaining ([3]; human plasma, 60 min): 91.3 % of initial amount
Compound Remaining ([3]; human plasma, 120 min): 78.6 % of initial amount
half-life ([3]; mouse plasma): > 2 h
Compound Remaining ([3]; mouse plasma, 0 min): 100 % of initial amount
Compound Remaining ([3]; mouse plasma, 15 min): 100 % of initial amount
Compound Remaining ([3]; mouse plasma, 30 min): 101 % of initial amount
Compound Remaining ([3]; mouse plasma, 60 min): 85.8 % of initial amount
Compound Remaining ([3]; mouse plasma, 120 min): 91.7 % of initial amount
half-life ([3]; rat plasma): > 2 h
Compound Remaining ([3]; rat plasma, 0 min): 100 % of initial amount
Compound Remaining ([3]; rat plasma, 15 min): 95.2 % of initial amount
Compound Remaining ([3]; rat plasma, 30 min): 92.9 % of initial amount
Compound Remaining ([3]; rat plasma, 60 min): 80.2 % of initial amount
Compound Remaining ([3]; rat plasma, 120 min): 55.9 % of initial amount
IC50 [4]: 12.3 nM
AUC(0-t) ([5]; IV 5 mg/kg, solution, 5 mg/kg): 1063 ng·h/mL
CL ([5]; IV 5 mg/kg, solution, 5 mg/kg): 79.7 mL/min/kg
T1/2 ([5]; IV 5 mg/kg, solution, 5 mg/kg): 2.71 h
Vss ([5]; IV 5 mg/kg, solution, 5 mg/kg): 7.91 L/kg
F (absolute oral bioavailability) ([5]; PO 20 mg/kg vs IV 5 mg/kg, AUC0-t and nominal doses used): 2.44%
Cmax ([5]; PO 20 mg/kg, solution, 20 mg/kg): 23.1 ng/mL
AUC(0-inf) ([5]; male, Sprague Dawley, plasma, IV 5 mg/kg, solution): 1070 ng·h/mL
Cmax ([5]; male, Sprague Dawley, plasma, IV 5 mg/kg, solution, read-out: Cmax (back-extrapolated concentration)): 1840 ng/mL
AUC(0-inf) ([5]; male, Sprague Dawley, plasma, PO 20 mg/kg, solution, one animal data): 254 ng·h/mL
Tmax ([5]; male, Sprague Dawley, plasma, PO 20 mg/kg, solution, read-out: Tmax (median)): 2 h
AUC(0-t) ([5]; male, Sprague-Dawley, plasma, PO 20 mg/kg, solution, read-out: AUC0-t): 104 ng·h/mL
SMILES: C=CC(=O)Nc1cccc(-c2nc(Nc3cccc(N4CCOCC4)c3)nc3[nH]ncc23)c1 [Compound 3, N-(3-(6-((3-morpholinophenyl)amino)-1H-pyrazolo[3,4-d]pyrimidin-4-yl)phenyl)acrylamide]
